Assay results as given in patent publication US12116356B2, “N-heterocyclic five-membered ring-containing capsid protein assembly inhibitor, pharmaceutical composition thereof, and use thereof” (CHIA TAI TIANQING PHARMACEUTICAL GROUP CO., LTD., priority 2018, dated 2024).

Assays:
[1] = system: HBV DNA in HepG2.2.15 cells; assay: In vitro cell HBV DNA inhibitory activity (anti-HBV activity) in HepG2.2.15 cells; format: cell-based; settings: Hepatitis B virus, 144 h; anti-HBV activity in HepG2.2.15 cells, 6 days treatment, intracellular capsid HBV DNA by qPCR; read-out: EC50
Description: A bottle of HepG2.2.15 or HepAD38 cells in good exponential growth state was taken, washed once by adding 5 mL PBS, and then thereto was added 3 mL trypsin. After digesting at room temperature for 5 min, 2 mL trypsin was discarded, and then the sample was placed in a cell culture incubator and digested for 10 min. The cells were taken out from time to time and observed under a microscope (whether the cells were individually round and there was no adhesion between the cells). 10 mL complete medium was added to terminate the digestion. After pipetting into a single cell suspension, 10 μL of the cell suspension was taken out for cell counting with a cell counter, and then diluted with a complete medium and adjusted to a cell density of 1*10^5 cells/mL. Then the cell suspension was seeded at 1 mL/well in a 24-well plate with a multi-channel pipette (the 24-well plate was coated with 50 μg/mL Collagen I solution in advance), and cultured in a constant temperature CO2 incubator for 48 h.
Different compounds dissolved in DMSO were subjected to two-fold gradient dilution (10 concentrations in total) with complete medium. The compound was added, and fresh medium containing the compound was used to replace the spent medium every 72 hours. The cells were treated with the compound for 6 days. After the supernatant was siphoned off, 300 μL lysate (10 mM Tris-HCl, 1 mM EDTA, and 1% NP-40) was added to each well. After lysing at room temperature for 10 min, DNA was extracted, and HBV DNA in the intracellular viral capsid was measured by real-time fluorescence quantitative PCR. The inhibition rate was calculated based on the Ct value, and the EC50 value was calculated by the four-parameter method.

CYP 2B6 = CYP 2B6 (Homo sapiens (Human), UniProt P20813); assay: CYP450 enzyme inhibition study (liver microsomes, subtype IC50); format: in vitro ADME; settings: 30 minutes, read-out: Subtypes IC50 2B6
CYP 2B6, sequence (P20813 whole entry): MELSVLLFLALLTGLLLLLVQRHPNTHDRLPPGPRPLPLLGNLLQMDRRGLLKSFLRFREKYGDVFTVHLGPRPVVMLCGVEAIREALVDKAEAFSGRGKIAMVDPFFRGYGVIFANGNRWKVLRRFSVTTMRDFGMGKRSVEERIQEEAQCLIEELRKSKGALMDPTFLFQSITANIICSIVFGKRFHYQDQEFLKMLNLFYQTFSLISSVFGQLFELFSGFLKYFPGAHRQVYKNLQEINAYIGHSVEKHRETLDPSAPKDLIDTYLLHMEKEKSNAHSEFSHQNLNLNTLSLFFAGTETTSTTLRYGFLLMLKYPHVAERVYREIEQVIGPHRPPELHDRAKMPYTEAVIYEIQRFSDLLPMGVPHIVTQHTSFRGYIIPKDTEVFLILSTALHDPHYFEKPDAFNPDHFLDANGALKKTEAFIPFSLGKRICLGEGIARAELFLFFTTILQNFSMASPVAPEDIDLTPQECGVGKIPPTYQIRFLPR
Description: (§1) 500 μL of a final incubation system contains 50 μL of liver microsomes (protein concentration: 0.2 mg/mL), 1 μL of mixed CYP450 specific substrates (CYP1A2, CYP 2B6, CYP 2C9, CYP2C19, CYP 2D6, and CYP 3A4), 398 μL PBS buffer (PH7.4), 1 μL specific positive inhibitor (positive control group) or the test compound (formulated with acetonitrile), and 50 μL NADPH+MgCl2. Duplicate incubation systems of 0.5 mL each were formulated for each CYP450 subtype. A total volume of 450 μL of a uniformly mixed solution of the substrate and the enzyme was formulated in each tube, and the solution and NADPH were pre-incubated at 37° C. for 5 minutes, respectively. Then 50 μL of the mixed solution of NADPH+MgCl2 was added for reaction. 50 μL of the reaction solution was taken out at 30 minutes, and the reaction was terminated with 300 μL of ice acetonitrile containing an internal standard. In addition, two control groups of 500 μL each without NADPH were prepared in parallel as a negative control group.
(§2) Sample pre-treatment: To 50 μL of the incubated sample was added 300 μL of ice acetonitrile containing an internal standard, and then precipitated. After vortexing for 5 minutes, the sample was centrifugated (12000 rpm, 4° C.) for 10 minutes. 75 μL of the supernatant was pipetted, and 75 μL of ultrapure water was added thereto for dilution and mixed uniformly. 1 μL of the resulting solution was injected for analysis.

CYP 2C9 = CYP 2C9 (Homo sapiens (Human), UniProt P11712); assay: as above; format: in vitro ADME; settings: 30 minutes, read-out: Subtypes IC50 2C9
CYP 2C9, sequence (P11712 whole entry): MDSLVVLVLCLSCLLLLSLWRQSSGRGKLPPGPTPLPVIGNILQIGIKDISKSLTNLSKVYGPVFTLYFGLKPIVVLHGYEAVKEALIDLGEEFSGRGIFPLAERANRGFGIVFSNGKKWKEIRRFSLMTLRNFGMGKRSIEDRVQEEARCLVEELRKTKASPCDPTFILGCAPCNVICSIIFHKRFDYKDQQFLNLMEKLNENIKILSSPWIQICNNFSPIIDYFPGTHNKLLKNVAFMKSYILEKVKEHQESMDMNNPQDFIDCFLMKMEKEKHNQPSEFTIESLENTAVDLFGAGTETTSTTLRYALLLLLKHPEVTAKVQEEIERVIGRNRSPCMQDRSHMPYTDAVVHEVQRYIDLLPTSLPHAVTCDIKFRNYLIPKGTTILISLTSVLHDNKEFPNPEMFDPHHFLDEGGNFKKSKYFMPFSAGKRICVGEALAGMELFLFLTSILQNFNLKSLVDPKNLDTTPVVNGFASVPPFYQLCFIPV
Description: as §1, §2

CYP 2D6 = CYP 2D6 (Homo sapiens (Human), UniProt P10635); assay: as above; format: in vitro ADME; settings: 30 minutes, read-out: Subtypes IC50 2D6
CYP 2D6, sequence (P10635 whole entry): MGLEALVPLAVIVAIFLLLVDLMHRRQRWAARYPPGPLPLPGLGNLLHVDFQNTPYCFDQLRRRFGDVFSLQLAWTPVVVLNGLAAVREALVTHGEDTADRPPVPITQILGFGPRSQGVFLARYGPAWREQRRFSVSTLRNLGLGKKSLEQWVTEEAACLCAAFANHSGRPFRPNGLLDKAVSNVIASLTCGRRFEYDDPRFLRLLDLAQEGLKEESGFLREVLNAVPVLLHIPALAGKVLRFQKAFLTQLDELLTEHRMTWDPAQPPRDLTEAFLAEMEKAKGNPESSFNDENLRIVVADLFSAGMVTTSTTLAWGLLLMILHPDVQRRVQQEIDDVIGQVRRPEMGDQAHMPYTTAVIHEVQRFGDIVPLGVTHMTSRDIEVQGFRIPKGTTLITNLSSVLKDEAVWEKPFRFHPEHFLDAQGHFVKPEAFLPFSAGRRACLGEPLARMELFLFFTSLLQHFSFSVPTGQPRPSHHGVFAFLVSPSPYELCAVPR
Description: as §1, §2

CYP 3A4 = CYP 3A4 (Homo sapiens (Human), UniProt P08684); assay: as above; format: in vitro ADME; settings: 30 minutes, read-out: Subtypes IC50 3A4
CYP 3A4, sequence (P08684 whole entry): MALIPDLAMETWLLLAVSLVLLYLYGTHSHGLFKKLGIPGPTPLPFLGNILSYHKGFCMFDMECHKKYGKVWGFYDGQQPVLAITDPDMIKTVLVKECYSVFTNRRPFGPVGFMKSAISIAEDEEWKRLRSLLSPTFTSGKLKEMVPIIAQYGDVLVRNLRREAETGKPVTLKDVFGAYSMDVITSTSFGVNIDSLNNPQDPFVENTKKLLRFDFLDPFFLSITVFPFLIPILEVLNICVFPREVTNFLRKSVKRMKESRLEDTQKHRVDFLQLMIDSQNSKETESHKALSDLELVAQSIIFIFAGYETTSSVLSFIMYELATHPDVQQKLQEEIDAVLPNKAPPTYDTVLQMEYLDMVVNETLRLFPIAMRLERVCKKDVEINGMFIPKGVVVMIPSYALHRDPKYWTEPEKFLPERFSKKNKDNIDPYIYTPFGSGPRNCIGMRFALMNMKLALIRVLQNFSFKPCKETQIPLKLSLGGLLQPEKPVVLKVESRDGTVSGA
Description: as §1, §2

CYP1A2 = CYP1A2 (Homo sapiens (Human), UniProt P05177); assay: as above; format: in vitro ADME
CYP1A2, sequence (P05177 whole entry): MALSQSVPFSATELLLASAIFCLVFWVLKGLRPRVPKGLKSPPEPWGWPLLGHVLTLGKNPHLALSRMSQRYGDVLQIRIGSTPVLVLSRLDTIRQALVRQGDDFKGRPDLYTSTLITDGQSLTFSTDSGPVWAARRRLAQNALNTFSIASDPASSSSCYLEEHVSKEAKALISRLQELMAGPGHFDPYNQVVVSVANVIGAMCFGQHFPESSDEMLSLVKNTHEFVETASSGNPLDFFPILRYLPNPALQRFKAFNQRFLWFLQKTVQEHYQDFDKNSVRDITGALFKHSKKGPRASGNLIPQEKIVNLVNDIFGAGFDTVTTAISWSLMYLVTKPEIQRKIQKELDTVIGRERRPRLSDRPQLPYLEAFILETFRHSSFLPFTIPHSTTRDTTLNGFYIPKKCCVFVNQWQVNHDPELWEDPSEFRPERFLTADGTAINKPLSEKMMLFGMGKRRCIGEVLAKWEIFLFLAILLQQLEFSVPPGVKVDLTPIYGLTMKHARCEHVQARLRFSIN
Description: as §1, §2

CYP2C19 = CYP2C19 (Homo sapiens (Human), UniProt P33261); assay: as above; format: in vitro ADME; settings: 30 minutes, read-out: Subtypes IC50 2C19
CYP2C19, sequence (P33261 whole entry): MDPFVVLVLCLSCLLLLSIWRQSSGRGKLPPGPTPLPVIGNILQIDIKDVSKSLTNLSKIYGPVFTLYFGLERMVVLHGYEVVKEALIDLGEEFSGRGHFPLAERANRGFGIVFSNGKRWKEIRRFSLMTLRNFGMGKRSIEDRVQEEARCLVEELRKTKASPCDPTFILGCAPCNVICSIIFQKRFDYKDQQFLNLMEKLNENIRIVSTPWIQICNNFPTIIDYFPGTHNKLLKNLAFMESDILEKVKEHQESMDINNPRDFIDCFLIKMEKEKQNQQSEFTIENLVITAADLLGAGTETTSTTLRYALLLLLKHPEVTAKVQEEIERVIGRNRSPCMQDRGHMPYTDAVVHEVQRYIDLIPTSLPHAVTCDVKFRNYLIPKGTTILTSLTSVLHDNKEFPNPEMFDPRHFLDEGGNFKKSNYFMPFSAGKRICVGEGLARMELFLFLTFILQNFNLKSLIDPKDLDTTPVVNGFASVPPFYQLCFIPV
Description: as §1, §2

[2] = Stability of rat liver microsomes in vitro; format: in vitro ADME
Description: 300 μL of a final incubation system contains 30 μL of liver microsomes (protein concentration: 0.15 mg/mL), 30 μL NADPH+MgCl2, 3 μL substrate (formulated with acetonitrile), and 237 μL PBS buffer. Duplicate incubation systems of 0.3 mL each were formulated for each species. A total volume of 270 μL of a uniformly mixed solution of the substrate and the enzyme was formulated in each tube, the solution and NADPH were pre-incubated at 37° C. for 5 minutes, respectively. Then 30 μL of the mixed solution of NADPH+MgCl2 was added for reaction. 50 μL of the reaction solution was taken out at 0, 10, 30, and 60 mins, and the reaction was terminated with 300 μL of ice acetonitrile containing an internal standard.
Sample pre-treatment: To 50 μL of the incubated sample was added 300 μL of ice acetonitrile containing diazepam as an internal standard and then precipitated. After vortexing for 5 minutes, the sample was centrifugated (12000 rpm, 4° C.) for 10 minutes. 75 μL of the supernatant was pipetted into a 96-well plate, and then diluted with 75 μL ultrapure water and mixed uniformly. 0.5 μL of the resulting solution was injected and analyzed by LC-MS/MS.

Row | Structure (SMILES) | EC50 [1] | IC50 (CYP 2B6) | IC50 (CYP 2C9) | IC50 (CYP 2D6) | IC50 (CYP 3A4) | IC50 (CYP1A2) | IC50 (CYP2C19) | Remaining (%) at 60 min [2]
1 | Cc1c(C(=O)Nc2ccc(F)c(C#N)c2)c(C)n(C)c1C(=O)C(=O)N[C@@H](C)C(F)(F)F [Example 12] | < 0.01 µM | 146 µM | 79.7 µM | 224 µM | > 200 µM | 46.4 µM | 60 µM | 65.0%
2 | Cc1c(C(=O)Nc2ccc(F)c(C#N)c2)c(C)n(C)c1C(=O)C(=O)NC1(C(F)(F)F)COC1 [Example 25, N-(3-cyano-4-fluorophenyl)-1,2,4-trimethyl-5-(2-oxo-2-((3-(trifluoromethyl)oxetan-3-yl)amino)acetyl)-1H-pyrrole-3-carboxamide] | < 0.01 µM | 61.1 µM | 16.6 µM | 120 µM | 76 µM | 229 µM | 24.9 µM | 52.0%
